From US20090299044A1 (priority 2006, published 2009)
Bridge positions count the residues as written; N and C are the ends. Square brackets hold non-standard residues; d marks the D form. Peptide text beside a SMILES is read from it. 1Nal = N[C@@H](Cc1cccc2ccccc12)C(=O)O

Assays:
human Kv1.3 (CHO) = biological target: T1, human Kv1.3 (CHO) (Homo sapiens, UniProt P22001); assay: cell-based
T1 construct: expressed in transfected cells; host or cells: CHO

human Kv1.1 (HEK293) = biological target: T2, human Kv1.1 (HEK293) (Homo sapiens, UniProt Q09470); assay: cell-based
T2 construct: expressed in transfected cells; host or cells: HEK293
T2 sequence (Q09470 whole entry): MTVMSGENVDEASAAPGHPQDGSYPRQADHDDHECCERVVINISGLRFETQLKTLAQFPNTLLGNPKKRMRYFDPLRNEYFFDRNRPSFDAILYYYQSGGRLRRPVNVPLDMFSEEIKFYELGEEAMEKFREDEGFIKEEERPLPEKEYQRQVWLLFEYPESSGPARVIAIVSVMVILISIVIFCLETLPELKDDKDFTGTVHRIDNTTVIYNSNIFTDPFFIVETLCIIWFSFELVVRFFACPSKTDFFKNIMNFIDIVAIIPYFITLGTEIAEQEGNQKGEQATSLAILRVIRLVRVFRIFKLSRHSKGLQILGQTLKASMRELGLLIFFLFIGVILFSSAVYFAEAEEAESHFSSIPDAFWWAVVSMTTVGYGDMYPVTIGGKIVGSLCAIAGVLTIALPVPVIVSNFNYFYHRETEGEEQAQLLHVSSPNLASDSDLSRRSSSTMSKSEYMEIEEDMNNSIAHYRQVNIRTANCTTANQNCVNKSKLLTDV

T1 sequence (P22001 whole entry): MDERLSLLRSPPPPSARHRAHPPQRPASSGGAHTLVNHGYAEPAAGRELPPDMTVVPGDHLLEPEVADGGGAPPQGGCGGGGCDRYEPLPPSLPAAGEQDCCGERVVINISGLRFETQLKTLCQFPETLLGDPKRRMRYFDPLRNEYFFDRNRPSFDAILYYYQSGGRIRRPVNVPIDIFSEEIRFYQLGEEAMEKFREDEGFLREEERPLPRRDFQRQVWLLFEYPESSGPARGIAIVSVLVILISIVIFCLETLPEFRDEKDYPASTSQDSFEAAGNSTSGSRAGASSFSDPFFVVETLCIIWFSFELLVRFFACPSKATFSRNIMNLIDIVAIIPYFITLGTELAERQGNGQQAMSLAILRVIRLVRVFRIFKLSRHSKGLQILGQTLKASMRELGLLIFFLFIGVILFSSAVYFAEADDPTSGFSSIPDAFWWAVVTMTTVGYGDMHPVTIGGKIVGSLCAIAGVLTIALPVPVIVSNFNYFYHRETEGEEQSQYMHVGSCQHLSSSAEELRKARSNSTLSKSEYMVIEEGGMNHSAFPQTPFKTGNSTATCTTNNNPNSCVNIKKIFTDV

Row | Compound | IC50 (human Kv1.3 (CHO)) [nM] | IC50 (human Kv1.1 (HEK293)) [nM]
1 | CC[C@H](C)[C@@H]1NC(=O)[C@H](CCCCN)NC(=O)[C@@H](NC(=O)[C@H](CCCNC(=N)N)NC(=O)[C@@H](NC(=O)[C@H](CC(N)=O)NC(=O)[C@@H](NC(=O)[C@@H](NC(=O)[C@@H](NC(=O)CN)C(C)C)[C@@H](C)CC)[C@@H](C)CC)C(C)C)CSSC[C@@H]2NC(=O)[C@H](CCCCN)NC(=O)CNC(=O)[C@H](Cc3ccccc3)NC(=O)[C@H](CCCNC(=N)N)NC(=O)[C@H](CCSC)NC(=O)CNC(=O)[C@H](C)NC(=O)[C@H](CCCCN)NC(=O)[C@H](CCCCN)NC(=O)[C@@H]3CSSC[C@@H](C(=O)N[C@H](C(=O)N4CCC[C@H]4C(=O)N[C@@H](CCCCN)C(=O)O)[C@@H](C)O)NC(=O)[C@H](Cc4c[nH]cn4)NC(=O)[C@H](CSSC[C@H](NC(=O)[C@H](CCC(N)=O)NC(=O)[C@H](CCCNC(=N)N)NC(=O)[C@H](CO)NC1=O)C(=O)N[C@@H](CC(C)C)C(=O)N[C@@H](CCC(=O)O)C(=O)N1CCC[C@H]1C(=O)N3)NC(=O)[C@H](CCCCN)NC(=O)CNC(=O)[C@H](CC(N)=O)NC(=O)[C@H](CCSC)NC2=O [K7R] (H-GVIINVRCKISRQCLEPCKKAGMRFGKCMNGKCHCTPK-OH; disulfide 8-28, 14-33, 18-35) | 0.0132 | < 0.00152
2 | CC[C@H](C)[C@@H]1NC(=O)[C@H](CCCCN)NC(=O)[C@@H](NC(=O)[C@H](CCCCN)NC(=O)[C@@H](NC(=O)[C@H](CC(N)=O)NC(=O)[C@@H](NC(=O)[C@@H](NC(=O)[C@@H](NC(=O)CN)C(C)C)[C@@H](C)CC)[C@@H](C)CC)C(C)C)CSSC[C@@H]2NC(=O)[C@H](CCCCN)NC(=O)CNC(=O)[C@H](Cc3ccccc3)NC(=O)[C@H](CCCNC(=N)N)NC(=O)[C@H](CCSC)NC(=O)CNC(=O)[C@H](C)NC(=O)[C@H](CCCCN)NC(=O)[C@H](CCCCN)NC(=O)[C@@H]3CSSC[C@@H](C(=O)N[C@H](C(=O)N4CCC[C@H]4C(=O)N[C@@H](CCCCN)C(=O)O)[C@@H](C)O)NC(=O)[C@H](Cc4c[nH]cn4)NC(=O)[C@H](CSSC[C@H](NC(=O)[C@H](CCC(N)=O)NC(=O)[C@H](CCCNC(=N)N)NC(=O)[C@H](CO)NC1=O)C(=O)N[C@@H](CC(C)C)C(=O)N[C@@H](CCC(=O)O)C(=O)N[C@@H](Cc1cccc4ccccc14)C(=O)N3)NC(=O)[C@H](CCCCN)NC(=O)CNC(=O)[C@H](CC(N)=O)NC(=O)[C@H](CCSC)NC2=O [P17Nal] (H-GVIINVKCKISRQCLE[1Nal]CKKAGMRFGKCMNGKCHCTPK-OH; disulfide 8-28, 14-33, 18-35) | 0.0162 | < 0.00152
3 | CC[C@H](C)[C@@H]1NC(=O)[C@H](CCCCN)NC(=O)[C@@H](NC(=O)[C@H](CCCCN)NC(=O)[C@@H](NC(=O)[C@H](CC(N)=O)NC(=O)[C@@H](NC(=O)[C@@H](NC(=O)[C@@H](NC(=O)CN)C(C)C)[C@@H](C)CC)[C@@H](C)CC)C(C)C)CSSC[C@@H]2NC(=O)[C@H](CCCNC(=N)N)NC(=O)CNC(=O)[C@H](Cc3ccccc3)NC(=O)[C@H](CCCNC(=N)N)NC(=O)[C@H](CCSC)NC(=O)CNC(=O)[C@H](C)NC(=O)[C@H](CCCCN)NC(=O)[C@H](CCCCN)NC(=O)[C@@H]3CSSC[C@@H](C(=O)N[C@H](C(=O)N4CCC[C@H]4C(=O)N[C@@H](CCCCN)C(=O)O)[C@@H](C)O)NC(=O)[C@H](Cc4c[nH]cn4)NC(=O)[C@H](CSSC[C@H](NC(=O)[C@H](CCC(N)=O)NC(=O)[C@H](CCCNC(=N)N)NC(=O)[C@H](CO)NC1=O)C(=O)N[C@@H](CC(C)C)C(=O)N[C@@H](CCC(=O)O)C(=O)N1CCC[C@H]1C(=O)N3)NC(=O)[C@H](CCCCN)NC(=O)CNC(=O)[C@H](CC(N)=O)NC(=O)[C@H](CCSC)NC2=O [K27R] (H-GVIINVKCKISRQCLEPCKKAGMRFGRCMNGKCHCTPK-OH; disulfide 8-28, 14-33, 18-35) | 1.49 | > 3.33
